Here are results for 2 molecules from US7138122B2, “Therapeutic systems” (Enzacta R & D Limited, priority 1997, dated 2006).

Data set [1] has as its target T1, Rat DT-diaphorase (Rattus norvegicus, UniProt P05982).
T1 sequence (P05982 2-274 limits assumed): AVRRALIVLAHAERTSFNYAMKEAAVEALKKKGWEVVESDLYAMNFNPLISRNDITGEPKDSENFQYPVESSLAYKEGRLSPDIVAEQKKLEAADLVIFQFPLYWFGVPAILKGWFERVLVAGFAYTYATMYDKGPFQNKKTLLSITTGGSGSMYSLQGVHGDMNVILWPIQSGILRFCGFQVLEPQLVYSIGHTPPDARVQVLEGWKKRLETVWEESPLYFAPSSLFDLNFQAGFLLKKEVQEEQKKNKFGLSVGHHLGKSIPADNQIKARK
The settings on record: with respect to CB 1954; NADH as co-substrate; cited from earlier work.

For data set [2], the target named is Human DT-diaphorase (Homo sapiens, UniProt P15559). To be noted: with respect to CB 1954; NADH as co-substrate; cited from earlier work.
Chain of Human DT-diaphorase (P15559 whole entry): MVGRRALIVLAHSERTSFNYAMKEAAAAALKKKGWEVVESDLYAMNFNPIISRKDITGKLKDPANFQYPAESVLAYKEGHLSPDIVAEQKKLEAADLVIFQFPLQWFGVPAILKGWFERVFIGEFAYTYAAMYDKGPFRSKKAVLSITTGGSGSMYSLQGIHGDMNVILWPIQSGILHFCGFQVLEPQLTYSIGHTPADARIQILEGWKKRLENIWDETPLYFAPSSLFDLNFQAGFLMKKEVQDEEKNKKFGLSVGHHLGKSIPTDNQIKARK
The subject of data set [3] is human T98G gliobastoma cells. Kind of data set: Cytotoxicity of CB 1954 on T98G glioblastoma cells with NQO2 co-substrates. The settings on record: no co-substrate.
Description: Cells in exponential phase of growth were trypsinised, seeded in 96 well plates at a density of 5×10^4 cells per well (100 μl) and permitted to recover for 24 hours. Then 50 μl of medium was removed and replaced with 50 μl of fresh medium containing 200 μM NRH to give a final concentration of 100 μM. Serial dilutions of CB 1954 (8 of 3.66×) were performed in situ giving final concentrations of 1000–0.46 μM. Cells were then incubated with drug for 72 hours at 37° C. The plates were fixed and stained with sulforhodamine-B; the absorption at 590 nm read and results were expressed as percentage of control growth. The IC50 values were evaluated by interpolation.
The cells were treated as for V79 cells but were treated for 144 hr in presence of CB 1954.
Data set [4] has as its target E. coli nitroreductase (Escherichia coli, UniProt P38489). The settings on record: with respect to CB 1954; NADH as co-substrate; cited from earlier work.
The test system of data set [5] is NQO2 expressing V79 cells. The experiment in a line: Cytotoxicity of CB 1954 with NRH in NQO2-transfected V79 cells. The settings on record: 100 μM NRH added, 72 hours. In kind it is cell-based, Chinese hamster. The procedure: Transfection quality H6 DNA was prepared using the QIAGEN endotoxin-free maxiprep kit. Chinese hamster lung embryo fibroblasts (V79) were transfected with the purified H6 using DOTAP liposomal reagent according to the manufacturer's instructions (Boehringer Mannheim). Two days after transfection puromycin-resistant clones were selected in DMEM/10% FCS containing 10 μg/ml puromycin (Sigma) and grown on to establish cell lines designated V79TM1, 5, 3, 7, 9, 11 and 13 respectively and maintained in selective medium.

In data set [6] the test system is non-transfected V79 cells. Kind of data set: Cytotoxicity of CB 1954 with NRH in non-transfected V79 cells. The settings on record: 100 μM NRH added, 72 hours. In kind it is cell-based, Chinese hamster.
Data set [7] has as its target T2, NQO2 (Homo sapiens, UniProt P16083).
T2 sequence (P16083 1-231): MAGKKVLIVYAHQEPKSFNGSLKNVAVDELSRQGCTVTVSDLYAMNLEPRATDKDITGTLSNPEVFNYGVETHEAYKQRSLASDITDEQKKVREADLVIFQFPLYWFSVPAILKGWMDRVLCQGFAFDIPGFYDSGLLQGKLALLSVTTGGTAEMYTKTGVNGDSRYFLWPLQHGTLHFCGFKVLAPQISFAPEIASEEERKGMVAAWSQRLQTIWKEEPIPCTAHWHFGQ
The experiment in a line: Co-substrate activity with NQO2 for reduction of CB 1954 (HPLC). Format: biochemical. Also on record: restriction site were added to the 5′ and 3′-ends of the full-length NQO2 cDNA; made in house; host or cells: E. coli (expression vector pKK233-2, plasmid pKK-hNQO2). The procedure: The effect of various co-substrates on CB 1954 was determined as above but NADH. NADPH or NMNH was substituted for the NRH and CB 1954 was used at a fixed concentration of 100 μM. The enzyme concentration was 5 μg/ml. The reduction of CB 1954 was monitored by measuring both the decrease in its corresponding peak area on the HPLC trace and the increase in the area of the peak corresponding to the reduction product 5-(aziridin-1-yl)-4-hydroxylamino-2-nitrobenzamide. The relative rates of reduction were determined at 10% reduction of CB1954 from a graph plotting CB 1954 reduction against time. The time axis was normalised to the equivalent of 10 μg/ml of NQO2.
The activity of various potential co-substrates was determined by HPLC analysis in the presence of CB1954 and NQO2. To determine the kinetic parameters NQO2 (1 μg/ml) was incubated with NRH (5000 μM) and CB1954 at different concentrations (0.1 to 2 mM) in sodium phosphate buffer (10MM, pH 7) at 37° C. At various times, aliquots (10 μl) were injected onto a Partisphere SCX (250×4.5 mm) HPLC column (Whatman Ltd) and eluted isocratically (1.5 ml/min) with 50 mM aqueous sodium phosphate containing 1% methanol. The eluate was continuously monitored for absorption at 320 nm. […] The reduction of CB1954 was monitored by quantifying the increase in the area of the peak corresponding to the reduction product 5-(aziridin-1-yl)-4-hydroxylamino-2-nitrobenzamide. All the assays were initiated by addition of the enzyme and performed in duplicate. The kinetic parameters were calculated by plotting the initial rate of reduction at each concentration of CB1954 against that concentration and fitting the data to the Michaelis-Menton equation using a computer programme (Fig P). Values were confirmed by transforming the data and fitting it to various linear forms of the equation by regression analysis.
The effect of various co-substrates on CB1954 reduction was determined as above but the co-substrate was substituted for the NRH and C1954 was used at a fixed concentration of 100 μM. The enzyme concentration was 1 or 5 μg/ml. The reduction of CB1954 was monitored by measuring both the decrease in its corresponding peak area on the HPLC trace and the increase in the area of the peak corresponding to the reduction product 5-(aziridin-1-yl)-4-hydroxylamino-2-nitrobenzamide. The relative rates of reduction were determined at 10% reduction of CB1954 from a graph plotting CB1954 reduction against time. The time axis was normalised to the equivalent of 10 μg/ml of NQO2. The kinetic parameters of NQO2 for the various co-substrates was determined as for CB1954 except that the initial concentration of CB1954 was constant at 100 μm whilst that of the co-substrate was varied from 0 to 2 mM. The enzyme concentration was 0.5 μg/ml.

Chain of E. coli nitroreductase (P38489 whole entry): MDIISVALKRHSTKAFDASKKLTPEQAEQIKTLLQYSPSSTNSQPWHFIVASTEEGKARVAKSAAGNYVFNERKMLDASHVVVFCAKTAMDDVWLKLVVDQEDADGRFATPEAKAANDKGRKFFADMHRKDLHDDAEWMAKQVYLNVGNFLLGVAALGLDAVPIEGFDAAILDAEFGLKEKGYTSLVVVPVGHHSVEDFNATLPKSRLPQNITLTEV

As for `NC(=O)c1cc(N2CC2)c([N+](=O)[O-])cc1[N+](=O)[O-]` [CB 1954, 5-(aziridin-1-yl)-2,4-dinitrobenzamide], the values for the Km in data set [1] and in data set [2] were 826 µM and 1400 µM, respectively. The results for the kcat in data set [1], in data set [2] and in data set [4] were 0.0683 s⁻¹, 0.0107 s⁻¹ and 6.0 s⁻¹, respectively. Moreover, the “toxicity of CB1954 alone” value in data set [3] was “not toxic”.
For `NC(=O)C1=CN([C@@H]2O[C@H](CO)[C@@H](O)[C@H]2O)C=CC1` [NRH, dihydronicotinamide riboside], the “increase of the cytotoxicity of CB 1954” value in data set [5] (V79TM5 and 13 cell lines) is listed as “greater than 100 fold”; in data set [5] (V79TM13 cells), “at least 100 fold”; in data set [6], less than 3 fold. In addition, the “RELATIVE RATE OF REDUCTION” value in data set [7] (CB 1954 reduction by NQO2, co-substrate initial 500 μM, CB 1954 initial 100 μM) was 70.0. The Km (as a rule, the substrate concentration at which the rate is half of its maximum) in data set [7] (of NQO2 for the co-substrate, CB1954 as electron acceptor (100 μM)) turned out to be 28 ± 2 µM. For the same molecule, the turnover number (kcat) (commonly the number of substrate molecules converted per active site and unit of time at saturation) in data set [7] (of NQO2 with the co-substrate, CB1954 as electron acceptor) was found to be 6 s⁻¹.
